# In the NIST ThermoML archive (doi:10.1021/acs.jced.7b01135):
# ± gives the expanded uncertainty stated by the source.
# Tests used:
# [1] = wn = mass fraction of the nth substance listed; conditions: 298.2 K; 101.3 kPa; Liquid; Pycnometric method; w1 = 0.2
# [2] = refractive index (Na D-line) (dimensionless); wn = mass fraction of the nth substance listed; conditions: 101.3 kPa, Liquid, Standard Abbe refractometry
# [3] = refractive index (Na D-line) (dimensionless); conditions: 298.2 K; 101.33 kPa; Liquid; Standard Abbe refractometry
# [4] = 298.2 K; 101.33 kPa; Liquid; Pycnometric method
compound,measurement,setting,value
O=C(O)CC(O)(CC(=O)O)C(=O)O [citric acid] + O,mass density,[1],1085.86 ± 2 kg/m3
same,refractive index,"[2]; 298.2 K, w1 = 0.2",1.356 ± 0.012
O [water],refractive index,[3],1.3324 ± 0.012
CCCCCCCCCCO [decan-1-ol] + O,refractive index,"[2]; 298.2 K, w2 = 0.9975",1.33545 ± 0.012
same,refractive index,"[2]; 308.2 K, w2 = 0.9938",1.33463 ± 0.012
same,refractive index,"[2]; 318.2 K, w2 = 0.9901",1.33317 ± 0.012
same,refractive index,"[2]; 328.2 K, w2 = 0.9864",1.33224 ± 0.012
CCCCCCCCCCO [decan-1-ol],refractive index,[3],1.4346 ± 0.012
same,mass density,[4],826.86 ± 2 kg/m3
